Test results from patent US20110112135A1, “Imidazo [1,2-A] Pyridine Compounds” (priority 2007, published 2011).

How the values were obtained:
[1] = biological target: T1, human LXRβ (Homo sapiens, UniProt P55055); assay: Ligand-binding test procedure for human LXRβ (3H T0901317 tracer, flash plates); conditions: biotinylated hLXRβ from E. coli extract; tracer 3H T0901317
T1 construct: biotin (biotinylated); made in house; host or cells: E. coli (crude extract)
T1 sequence (P55055 1-460): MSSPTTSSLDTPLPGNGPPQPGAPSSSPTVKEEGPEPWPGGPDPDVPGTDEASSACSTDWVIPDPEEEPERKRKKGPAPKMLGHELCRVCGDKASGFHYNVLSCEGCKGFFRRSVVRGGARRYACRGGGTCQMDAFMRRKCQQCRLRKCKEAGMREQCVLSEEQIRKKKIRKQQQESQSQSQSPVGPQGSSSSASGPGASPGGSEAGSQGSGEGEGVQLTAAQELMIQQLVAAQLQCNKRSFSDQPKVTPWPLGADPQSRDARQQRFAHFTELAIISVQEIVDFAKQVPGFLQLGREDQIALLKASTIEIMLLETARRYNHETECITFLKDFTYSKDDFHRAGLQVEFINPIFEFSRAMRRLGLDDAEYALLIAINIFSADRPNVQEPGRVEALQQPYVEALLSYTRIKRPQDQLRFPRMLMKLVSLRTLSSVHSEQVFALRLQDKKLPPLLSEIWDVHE
Summary of the method: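 Biotinylated hLXRβ from E. coli extract was captured on streptavidin flash plates (Bmax ~4000 cpm) at 4 °C overnight. Test ligand dilutions were mixed with 5 nM [3H]T0901317 tracer solution and incubated on the plates overnight at 4 °C; bound radioactivity was counted after washing.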

[2] = biological target: T2, human LXRα (Homo sapiens, UniProt Q13133); assay: Ligand-binding test procedure for human LXRα (3H T0901317 tracer, flash plates); conditions: biotinylated hLXRα from E. coli extract; tracer 3H T0901317
T2 construct: biotin (biotinylated); made in house; host or cells: E. coli (crude extract)
T2 sequence (Q13133 1-447): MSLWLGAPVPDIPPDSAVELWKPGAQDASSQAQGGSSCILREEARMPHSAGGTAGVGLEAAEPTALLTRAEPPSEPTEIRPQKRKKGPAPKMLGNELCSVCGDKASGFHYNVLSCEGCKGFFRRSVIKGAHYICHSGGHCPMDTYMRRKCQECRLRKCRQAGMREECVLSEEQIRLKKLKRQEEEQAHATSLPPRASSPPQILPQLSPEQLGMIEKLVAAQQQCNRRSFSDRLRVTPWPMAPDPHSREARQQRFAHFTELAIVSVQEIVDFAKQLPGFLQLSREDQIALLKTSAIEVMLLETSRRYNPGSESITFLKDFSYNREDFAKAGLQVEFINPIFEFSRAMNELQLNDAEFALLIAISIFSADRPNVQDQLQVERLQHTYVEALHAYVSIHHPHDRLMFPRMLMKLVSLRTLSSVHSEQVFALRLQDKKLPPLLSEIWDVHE
Summary of the method: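 Biotinylated hLXRα from E. coli extract (50 mM Tris) captured on streptavidin flash plates overnight at 4 °C. Compound dilution series mixed with 5 nM [3H]T0901317 (concentration before mixing), incubated overnight at 4 °C; wells aspirated, washed and remaining radioactivity counted.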

[3] = tested on: ABCA1 gene; assay: Quantitative analysis of ABCA1 gene regulation in THP-1 cells (real-time PCR); type: cell-based, human; conditions: Gene regulation by LXR (Human), differentiated THP-1 cells, 18 hrs; for EC50: ABCA1 mRNA, read-out: EC50 ABCA1; for Emax: LXR agonist reference at 1.0 uM as positive control, read-out: Agonism ABCA1
Procedure: III. Quantitative Analysis of ABCA1 Gene Regulation in THP-1 Cells. The compounds of formula (I) effect on the regulation of the ABCA1 gene was evaluated using the following procedure. Materials and Methods Cell culture: The THP-1 monocytic cell line (ATCC #TIB-202) was obtained from American Type Culture Collection (Manassas, Va.) and cultured in RPMI 1640 medium (Gibco, Carlsbad, Calif.) containing 10% FBS, 2 mM L-glutamine, and 55 uM beta-Mercaptoethanol (BME). […] Louis, Mo.) for three days to induce differentiation into adherent macrophages. Differentiated THP-1 cells were treated with test compounds or ligands dissolved in DMSO (Sigma, D-8779) in culture medium lacking phorbal ester. […] Dose response effects were measured in duplicate, in the range of 0.001 to 30 micromolar concentrations and treated cells were incubated for an additional 18 hrs prior to RNA isolation. Unstimulated cells treated with vehicle were included as negative controls on each plate. […] L., J. Med. Chem. (2000), 45:1963-1966.). Results of antagonist analysis are expressed as % antagonism and IC50 (in μM). RNA isolation and quantitation: Total cellular RNA was isolated from treated cells cultured in 96-well plates using PrepStation 6100 (Applied Biosystems, Foster City, Calif.), according to the manufacturer's recommendations. RNA was resuspended in ribonuclease-free water and stored at -70° C. prior to analysis. RNA concentrations were quantitated with RiboGreen test procedure, #R-11490 (Molecular Probes, Eugene, Oreg.). Gene expression analysis: Gene-specific mRNA quantitation was performed by real-time PCR with the Perkin Elmer Corp. chemistry on an ABI Prism 7700 Sequence detection system (Applied Biosystems, Foster City, Calif.) according to the manufacturer's instructions. Samples (50-100 ng) of total RNA were assayed in duplicate or triplicate in 50 ul reactions using one-step RT-PCR and the standard curve method to estimate specific mRNA concentrations. Sequences of gene-specific primer and probe sets were designed with Primer Express Software (Applied Biosystems, Foster City, Calif.). […] Relative levels of ABCA1 mRNA are normalized using GAPDH mRNA or 18S rRNA probe/primer sets purchased commercially (Applied Biosystems, Foster City, Calif.). Statistics: Mean, standard deviation and statistical significance of duplicate evaluations of RNA samples were assessed using ANOVA, one-way analysis of variance using SAS analysis. Reagents: -GAPDH Probe and Primers-Taqman GAPDH Control Reagents 402869 or 4310884E 18S Ribosomal RNA-Taqman 18S Control Reagents 4308329 […] Qiagen Quantitect probe RT-PCR 204443.

For `CC(C)c1nc2c(C(F)(F)F)cccn2c1-c1ccc(-c2ccc(S(=O)(=O)C(C)C)cc2)cc1` [Example 91, 2-isopropyl-3-(4′-(isopropylsulfonyl)biphenyl-4-yl)-8-(trifluoromethyl)imidazo[1,2-a]pyridine], the IC50 [1] was greater than 1 µM, the IC50 [2] was greater than 1 µM and the EC50 [3] was 2.77 µM. It also gave an Emax [3] of 33%.
`CCc1nc2c(C#N)cccn2c1-c1cccc(Oc2cccc(S(=O)(=O)CC)c2)c1` [Example 70, 2-ethyl-3-{3-[3-(ethylsulfonyl)phenoxy]phenyl}imidazo[1,2-a]pyridine-8-carbonitrile] showed an IC50 [1] of 0.107 µM, an IC50 [2] of 4.67 µM and an EC50 [3] of 1.27 µM. It also gave an Emax [3] of 95%.
For `CCc1nc2c(C(F)(F)F)cccn2c1-c1cccc(Oc2cccc(S(=O)(=O)C(C)C)c2)c1` [Example 20, 2-ethyl-3-(3-(3-(isopropylsulfonyl)phenoxy)phenyl)-8-(trifluoromethyl)imidazo[1,2-a]pyridine], the IC50 [1] was 0.014 µM, the IC50 [2] was 0.281 µM and the EC50 [3] was 0.07 µM. For the same compound, the Emax [3] was 101%.
For `CCc1nc2c(Cl)cccn2c1-c1cccc(Oc2cccc(S(=O)(=O)NC)c2)c1` [Example 48, 3-[3-(8-chloro-2-ethylimidazo[1,2-a]pyridin-3-yl)phenoxy]-N-methylbenzenesulfonamide], the IC50 [1] was 0.023 µM, the IC50 [2] was 0.411 µM and the EC50 [3] was 0.925 µM. For the same compound, the Emax [3] was 94%.
`CCc1nc2c(C#N)cccn2c1-c1cccc(Oc2cccc(S(=O)(=O)NC)c2)c1` [Example 51, 3-[3-(8-cyano-2-ethylimidazo[1,2-a]pyridin-3-yl)phenoxy]-N-methylbenzenesulfonamide] gave an IC50 [1] of 0.0796 µM, an IC50 [2] of 1.92 µM and an EC50 [3] of 1.47 µM. For the same compound, the Emax [3] was 93%.
For `CC(C)c1nc2c(C(F)(F)F)cccn2c1-c1ccc(Oc2cccc(S(C)(=O)=O)c2)cc1` [Example 119, 2-(1-methylethyl)-3-{4-[3-(methylsulfonyl)phenoxy]phenyl}-8-(trifluoromethyl)imidazo[1,2-a]pyridine], the IC50 [1] was 0.179 µM, the IC50 [2] was greater than 1 µM and the EC50 [3] was 0.62 µM. The Emax [3] was 59%.
`CC(C)(C)c1nc2c(C(F)(F)F)cccn2c1-c1cccc(Oc2cccc(S(=O)(=O)CCCO)c2)c1` [Example 78, 3-[(3-{3-[2-tert-butyl-8-(trifluoromethyl)imidazo[1,2-a]pyridin-3-yl]phenoxy}phenyl)sulfonyl]propan-1-ol] was tested, and the IC50 [1] was 0.009 µM, the IC50 [2] was 0.167 µM and the EC50 [3] was 1.47 µM. The Emax [3] was 92%.
With `CCS(=O)(=O)c1cccc(Oc2ccc(Cl)c(-c3c(C(C)C)nc4c(C#N)cccn34)c2)c1` [Example 83, 3-{2-chloro-5-[3-(ethylsulfonyl)phenoxy]phenyl}-2-isopropylimidazo[1,2-a]pyridine-8-carbonitrile] the IC50 [1] was 0.0068 µM, the IC50 [2] was 0.218 µM and the EC50 [3] was 0.26 µM. For the same compound, the Emax [3] was 76%.
With `CCS(=O)(=O)c1cccc(Oc2cccc(-c3c(C(C)C)nc4c(Cl)cccn34)c2)c1` [Example 67, 8-chloro-3-{3-[3-(ethylsulfonyl)phenoxy]phenyl}-2-isopropylimidazo[1,2-a]pyridine] the IC50 [1] was 0.0095 µM, the IC50 [2] was 0.405 µM and the EC50 [3] was 1.61 µM. It also gave an Emax [3] of 81%.
For `CCc1nc2c(Cl)cccn2c1-c1cccc(Oc2cccc(S(=O)(=O)CC)c2)c1` [Example 64, 8-chloro-2-ethyl-3-{3-[3-(ethylsulfonyl)phenoxy]phenyl}imidazo[1,2-a]pyridine], the IC50 [1] was 0.0151 µM, the IC50 [2] was 0.399 µM and the EC50 [3] was 0.64 µM. It also gave an Emax [3] of 79%.
`CCS(=O)(=O)c1cccc(Oc2ccc(-c3c(C(C)C)nc4c(C(F)(F)F)cccn34)cc2)c1` [Example 120, 3-{4-[3-(ethylsulfonyl)phenoxy]phenyl}-2-(1-methylethyl)-8-(trifluoromethyl)imidazo[1,2-a]pyridine] gave an IC50 [1] of 0.117 µM, an IC50 [2] greater than 1 µM and an EC50 [3] of 0.59 µM. The Emax [3] was 53%.
